Measured values published in patent US9850283B2, “Macrocyclic inhibitors of the PD-1/PD-L1 and CD80(B7-1)/PD-L1 protein/protein interactions” (BRISTOL-MYERS SQUIBB COMPANY, priority 2013, dated 2017).
Positions of bridges follow the written chain, without caps; N, C: chain ends. Non-standard residues stand in square brackets, D forms with d. Residues, ends and D or L forms follow the SMILES beside them. ξ: configuration not given here. Bta = N[C@@H](Cc1csc2ccccc12)C(=O)O; Hyp = O=C(O)[C@@H]1C[C@@H](O)CN1; NMeNle = CCCC[C@H](NC)C(=O)O; NMeM = CN[C@@H](CCSC)C(=O)O; NMeS = CN[C@@H](CO)C(=O)O; NMeA = CN[C@@H](C)C(=O)O; ξhCys = NC(CCS)C(=O)O; ξC = NC(CS)C(=O)O

Tests used:
[1] = molecular target: T1, LK35.2-hPD-L1 cells / PE-labeled PD-1-Ig (Homo sapiens, UniProt Q9NZQ7); test: LK35.2-hPD-L1 cell binding high-content screening assay; assay type: cell-based; conditions: cell binding assay, cell line not given; cluster symbol; read-out: CBA IC50 cluster
T1 construct: expressed in transfected cells; host or cells: LK35.2 mouse B cell line
Procedure, shortened: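 Mouse LK35.2 B cells stably overexpressing human PD-L1 were cultured overnight in RPMI with 10% FCS, then given compound and PE-labeled human PD-1-Ig (1 nM final) for 1 h at 37 °C. After three dPBS washes, bound fluorescence was quantified by high-content imaging.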

Human PD-L1/PD-1 = molecular target: T2, Human PD-L1/PD-1 (Homo sapiens, UniProt Q9NZQ7); test: HTRF PD-1-Ig/PD-L1-His binding assay (human PD-L1); conditions: cluster symbol; read-out: HTRF IC50 cluster
T2 construct: made in house; host or cells: HEK293T
Procedure, shortened: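 Steps: truncated PD-1-Ig and PD-L1-His fusions are incubated in dPBS containing 0.1% (w/v) BSA and 0.05% (v/v) Tween-20. Detection antibodies are then added (Eu cryptate anti-Ig at 1 nM final, APC anti-His at 20 nM final), and time-resolved FRET is measured.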

T2 sequence (Q9NZQ7 with tags, fused parts or gaps): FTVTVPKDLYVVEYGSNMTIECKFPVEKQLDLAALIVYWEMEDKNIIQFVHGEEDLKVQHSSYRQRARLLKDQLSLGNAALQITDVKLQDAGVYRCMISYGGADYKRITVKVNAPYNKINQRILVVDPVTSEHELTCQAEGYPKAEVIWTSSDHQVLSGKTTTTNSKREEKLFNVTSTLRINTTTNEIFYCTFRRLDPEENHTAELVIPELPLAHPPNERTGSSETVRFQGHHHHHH
T1 sequence (Q9NZQ7 19-290): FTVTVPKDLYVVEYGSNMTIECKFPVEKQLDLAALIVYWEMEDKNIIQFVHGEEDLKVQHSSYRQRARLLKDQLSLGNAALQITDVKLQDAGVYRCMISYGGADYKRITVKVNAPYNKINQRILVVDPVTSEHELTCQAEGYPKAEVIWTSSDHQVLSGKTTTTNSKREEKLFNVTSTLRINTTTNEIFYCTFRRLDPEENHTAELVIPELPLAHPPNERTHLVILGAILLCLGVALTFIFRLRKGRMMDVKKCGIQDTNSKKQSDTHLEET

| Compound | IC50 [1] | IC50 (Human PD-L1/PD-1) |
| --- | --- | --- |
| CCCC[C@H]1C(=O)N(C)[C@@H](CCSC)C(=O)N[C@@H](CCCNC(=N)N)C(=O)NC(C(=O)NCC(N)=O)CSCC(=O)N[C@@H](Cc2ccc(O)cc2)C(=O)N(C)[C@@H](C)C(=O)N[C@@H](CC(N)=O)C(=O)N2CCC[C@H]2C(=O)N[C@@H](Cc2cnc[nH]2)C(=O)N[C@@H](CC(C)C)C(=O)N2CCC[C@H]2C(=O)N[C@@H](Cc2c[nH]c3ccccc23)C(=O)N[C@@H](CO)C(=O)N[C@@H](Cc2csc3ccccc23)C(=O)N1C (stereo partly drawn) [Example 9022] ({CH2CO}-Y[NMeA]NPHLPWS[Bta][NMeNle][NMeM]R[ξC]G-NH2; thioether N-14) | 0.158 to 4.71 nM | 0.385 to 6.74 nM |
| CCCC[C@H]1C(=O)N(C)[C@@H](CCSC)C(=O)N[C@@H](CCCNC(=N)N)C(=O)NC(C(=O)NCC(N)=O)CSCC(=O)N[C@@H](Cc2ccc(O)cc2)C(=O)N(C)[C@@H](C)C(=O)N[C@@H](CC(N)=O)C(=O)N2CCC[C@H]2C(=O)N[C@@H](Cc2cnc[nH]2)C(=O)N[C@@H](CC(C)C)C(=O)N2C[C@H](O)C[C@H]2C(=O)N[C@@H](Cc2c[nH]c3ccccc23)C(=O)N[C@@H](CO)C(=O)N[C@@H](Cc2csc3ccccc23)C(=O)N1C (stereo partly drawn) [Example 9023] ({CH2CO}-Y[NMeA]NPHL[Hyp]WS[Bta][NMeNle][NMeM]R[ξC]G-NH2; thioether N-14) | 0.158 to 4.71 nM | 0.385 to 6.74 nM |
| CCCC[C@H]1C(=O)N(C)[C@@H](CCSC)C(=O)N[C@@H](CCCNC(=N)N)C(=O)NC(C(=O)NCC(N)=O)CSCC(=O)N[C@@H](Cc2ccc(O)cc2)C(=O)N(C)[C@@H](C)C(=O)N[C@@H](CC(N)=O)C(=O)N2CCC[C@H]2C(=O)N[C@@H](Cc2cnc[nH]2)C(=O)N[C@@H](CC(C)C)C(=O)N2C[C@H](O)C[C@H]2C(=O)N[C@@H](Cc2c[nH]c3ccccc23)C(=O)N[C@@H](CO)C(=O)N[C@@H](Cc2c[nH]c3ccccc23)C(=O)N1C (stereo partly drawn) [Example 9024] | 0.158 to 4.71 nM | 0.385 to 6.74 nM |
| CCCC[C@H]1C(=O)N(C)[C@@H](CCSC)C(=O)N[C@@H](CCCNC(=N)N)C(=O)NC(C(=O)NCC(N)=O)CSCC(=O)N[C@@H](Cc2ccc(O)cc2)C(=O)N(C)[C@@H](C)C(=O)N[C@@H](CC(N)=O)C(=O)N2CCC[C@H]2C(=O)N[C@@H](Cc2cnc[nH]2)C(=O)N[C@@H](CC(C)C)C(=O)N2CCC[C@H]2C(=O)N[C@@H](Cc2c[nH]c3ccccc23)C(=O)N[C@@H](CO)C(=O)N[C@@H](Cc2c[nH]c3ccccc23)C(=O)N1C (stereo partly drawn) [Example 9030] ({CH2CO}-Y[NMeA]NPHLPWSW[NMeNle][NMeM]R[ξC]G-NH2; thioether N-14) | 0.158 to 4.71 nM | 0.385 to 6.74 nM |
| CCCC[C@H]1C(=O)N(C)[C@@H](CO)C(=O)N[C@@H](CCCNC(=N)N)C(=O)NC(C(=O)NCC(N)=O)CSCC(=O)N[C@@H](Cc2ccc(O)cc2)C(=O)N(C)[C@@H](C)C(=O)N[C@@H](CC(N)=O)C(=O)N2CCC[C@H]2C(=O)N[C@@H](Cc2cnc[nH]2)C(=O)N[C@@H](CC(C)C)C(=O)N2C[C@H](O)C[C@H]2C(=O)N[C@@H](Cc2c[nH]c3ccccc23)C(=O)N[C@@H](CO)C(=O)N[C@@H](Cc2csc3ccccc23)C(=O)N1C (stereo partly drawn) [Example 9033] ({CH2CO}-Y[NMeA]NPHL[Hyp]WS[Bta][NMeNle][NMeS]R[ξC]G-NH2; thioether N-14) | 0.158 to 4.71 nM | 6.76 to 30.3 nM |
| CCCC[C@H]1C(=O)N(C)[C@@H](CO)C(=O)N[C@@H](CCCNC(=N)N)C(=O)NC(C(=O)NCC(N)=O)CSCC(=O)N[C@@H](Cc2ccc(O)cc2)C(=O)N(C)[C@@H](C)C(=O)N[C@@H](CC(N)=O)C(=O)N2CCC[C@H]2C(=O)N[C@@H](Cc2cnc[nH]2)C(=O)N[C@@H](CC(C)C)C(=O)N2C[C@H](O)C[C@H]2C(=O)N[C@@H](Cc2c[nH]c3ccccc23)C(=O)N[C@@H](CO)C(=O)N[C@@H](Cc2c[nH]c3ccccc23)C(=O)N1C (stereo partly drawn) [Example 9034] | 4.78 to 72.9 nM | 6.76 to 30.3 nM |
| CCCC[C@H]1C(=O)N(C)[C@@H](CCCC)C(=O)N[C@@H](CCCNC(=N)N)C(=O)NC(C(=O)NCC(N)=O)CSCC(=O)N[C@@H](Cc2ccc(O)cc2)C(=O)N(C)[C@@H](CO)C(=O)N[C@@H](CC(N)=O)C(=O)N2CCC[C@H]2C(=O)N[C@@H](Cc2cnc[nH]2)C(=O)N[C@@H](CC(C)C)C(=O)N2C[C@H](O)C[C@H]2C(=O)N[C@@H](Cc2c[nH]c3ccccc23)C(=O)N[C@@H](CO)C(=O)N[C@@H](Cc2c[nH]c3ccccc23)C(=O)N1C (stereo partly drawn) [Example 9036] | 0.158 to 4.71 nM | 0.385 to 6.74 nM |

Second part, the compound after the results:

| IC50 [1] | IC50 (Human PD-L1/PD-1) | Compound |
| --- | --- | --- |
| > 74.3 nM | 6.76 to 30.3 nM | CCCC[C@H]1C(=O)N(C)[C@@H](CCCC)C(=O)N[C@@H](CCCNC(=N)N)C(=O)NC(C(=O)NCC(N)=O)CCSCC(=O)N[C@@H](Cc2ccc(O)cc2)C(=O)N(C)[C@@H](C)C(=O)N[C@@H](CC(N)=O)C(=O)N2CCC[C@H]2C(=O)N[C@@H](Cc2cnc[nH]2)C(=O)N[C@@H](CC(C)C)C(=O)N2C[C@H](O)C[C@H]2C(=O)N[C@@H](Cc2c[nH]c3ccccc23)C(=O)N[C@@H](CO)C(=O)N[C@@H](Cc2c[nH]c3ccccc23)C(=O)N1C (stereo partly drawn) [Example 9021] ({CH2CO}-Y[NMeA]NPHL[Hyp]WSW[NMeNle][NMeNle]R[ξhCys]G-NH2; thioether N-14) |
| 0.158 to 4.71 nM | 0.385 to 6.74 nM | CCCC[C@H]1C(=O)N[C@@H](CCCNC(=N)N)C(=O)NC(C(=O)NCC(N)=O)CSCC(=O)N[C@@H](Cc2ccc(O)cc2)C(=O)N(C)[C@@H](C)C(=O)N[C@@H](CC(N)=O)C(=O)N2CCC[C@H]2C(=O)N[C@@H](Cc2cnc[nH]2)C(=O)N[C@@H](CC(C)C)C(=O)N2C[C@H](O)C[C@H]2C(=O)N[C@@H](Cc2c[nH]c3ccccc23)C(=O)N[C@@H](CO)C(=O)N[C@@H](Cc2csc3ccccc23)C(=O)N(C)[C@@H](CCSC)C(=O)N1C (stereo partly drawn) [Example 9025] ({CH2CO}-Y[NMeA]NPHL[Hyp]WS[Bta][NMeM][NMeNle]R[ξC]G-NH2; thioether N-14) |
| 0.158 to 4.71 nM | 0.385 to 6.74 nM | CCCC[C@H]1C(=O)N(C)[C@@H](CCCC)C(=O)N[C@@H](CO)C(=O)NC(C(=O)NCC(N)=O)CSCC(=O)N[C@@H](Cc2ccc(O)cc2)C(=O)N(C)[C@@H](C)C(=O)N[C@@H](CC(N)=O)C(=O)N2CCC[C@H]2C(=O)N[C@@H](Cc2cnc[nH]2)C(=O)N[C@@H](CC(C)C)C(=O)N2CCC[C@H]2C(=O)N[C@@H](Cc2c[nH]c3ccccc23)C(=O)N[C@@H](CO)C(=O)N[C@@H](Cc2csc3ccccc23)C(=O)N1C (stereo partly drawn) [Example 9027] ({CH2CO}-Y[NMeA]NPHLPWS[Bta][NMeNle][NMeNle]S[ξC]G-NH2; thioether N-14) |
| 0.158 to 4.71 nM | 0.385 to 6.74 nM | CCCC[C@H]1C(=O)N(C)[C@@H](CCCC)C(=O)N[C@@H](CO)C(=O)NC(C(=O)NCC(N)=O)CSCC(=O)N[C@@H](Cc2ccc(O)cc2)C(=O)N(C)[C@@H](C)C(=O)N[C@@H](CC(N)=O)C(=O)N2CCC[C@H]2C(=O)N[C@@H](Cc2cnc[nH]2)C(=O)N[C@@H](CC(C)C)C(=O)N2C[C@H](O)C[C@H]2C(=O)N[C@@H](Cc2c[nH]c3ccccc23)C(=O)N[C@@H](CO)C(=O)N[C@@H](Cc2csc3ccccc23)C(=O)N1C (stereo partly drawn) [Example 9028] ({CH2CO}-Y[NMeA]NPHL[Hyp]WS[Bta][NMeNle][NMeNle]S[ξC]G-NH2; thioether N-14) |
| 0.158 to 4.71 nM | 6.76 to 30.3 nM | CCCC[C@H]1C(=O)N(C)[C@@H](CCCC)C(=O)N[C@@H](CO)C(=O)NC(C(=O)NCC(N)=O)CSCC(=O)N[C@@H](Cc2ccc(O)cc2)C(=O)N(C)[C@@H](C)C(=O)N[C@@H](CC(N)=O)C(=O)N2CCC[C@H]2C(=O)N[C@@H](Cc2cnc[nH]2)C(=O)N[C@@H](CC(C)C)C(=O)N2C[C@H](O)C[C@H]2C(=O)N[C@@H](Cc2c[nH]c3ccccc23)C(=O)N[C@@H](CO)C(=O)N[C@@H](Cc2c[nH]c3ccccc23)C(=O)N1C (stereo partly drawn) [Example 9029] |
| 4.78 to 72.9 nM | 6.76 to 30.3 nM | CCCC[C@H]1C(=O)N(C)[C@@H](CO)C(=O)N[C@@H](CCCNC(=N)N)C(=O)NC(C(=O)NCC(N)=O)CSCC(=O)N[C@@H](Cc2ccc(O)cc2)C(=O)N(C)[C@@H](C)C(=O)N[C@@H](CC(N)=O)C(=O)N2CCC[C@H]2C(=O)N[C@@H](Cc2cnc[nH]2)C(=O)N[C@@H](CC(C)C)C(=O)N2CCC[C@H]2C(=O)N[C@@H](Cc2c[nH]c3ccccc23)C(=O)N[C@@H](CO)C(=O)N[C@@H](Cc2c[nH]c3ccccc23)C(=O)N1C (stereo partly drawn) [Example 9032] ({CH2CO}-Y[NMeA]NPHLPWSW[NMeNle][NMeS]R[ξC]G-NH2; thioether N-14) |
| 4.78 to 72.9 nM | 6.76 to 30.3 nM | CCCC[C@H]1C(=O)N(C)[C@@H](CCCC)C(=O)N[C@@H](CCCNC(=N)N)C(=O)NC(C(=O)NCC(N)=O)CSCC(=O)N[C@@H](Cc2ccc(O)cc2)C(=O)N(C)[C@@H](CO)C(=O)N[C@@H](CC(N)=O)C(=O)N2CCC[C@H]2C(=O)N[C@@H](Cc2cnc[nH]2)C(=O)N[C@@H](CC(C)C)C(=O)N2CCC[C@H]2C(=O)N[C@@H](Cc2c[nH]c3ccccc23)C(=O)N[C@@H](CO)C(=O)N[C@@H](Cc2csc3ccccc23)C(=O)N1C (stereo partly drawn) [Example 9035] ({CH2CO}-Y[NMeS]NPHLPWS[Bta][NMeNle][NMeNle]R[ξC]G-NH2; thioether N-14) |
| 0.158 to 4.71 nM | 6.76 to 30.3 nM | CCCC[C@H]1C(=O)N(C)[C@@H](CCCC)C(=O)N[C@@H](CCCNC(=N)N)C(=O)NC(C(=O)N[C@@H](CO)C(N)=O)CSCC(=O)N[C@@H](Cc2ccc(O)cc2)C(=O)N(C)[C@@H](C)C(=O)N[C@@H](CC(N)=O)C(=O)N2CCC[C@H]2C(=O)N[C@@H](Cc2cnc[nH]2)C(=O)N[C@@H](CC(C)C)C(=O)N2CCC[C@H]2C(=O)N[C@@H](Cc2c[nH]c3ccccc23)C(=O)N[C@@H](CO)C(=O)N[C@@H](Cc2c[nH]c3ccccc23)C(=O)N1C (stereo partly drawn) [Example 9037] ({CH2CO}-Y[NMeA]NPHLPWSW[NMeNle][NMeNle]R[ξC]S-NH2; thioether N-14) |
